In patent publication US20050112573A1, “Method of detecting toxic substance” (priority 2001, published 2005):

System: yeast genes (level of expressed mRNA)
Test: DNA chip analysis of expressed mRNA of yeast genes after 2 h culture with a toxic chemical substance
Assay type: cell-based, Saccharomyces cerevisiae S288C
Summary of the method: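 Values are treated-to-control fluorescence ratios from a whole-yeast-genome DNA chip (65° C, over 12 h hybridization) using Cy3/Cy5-labelled cDNA from mRNA. Log-phase S288C cells in YPD at 25° C were exposed 2 h to a toxicant at sublethal, growth-inhibiting concentration.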

HgCl2 [(3)]
The level of expressed mRNA in the presence of chemical substance/ (yeast gene YAL053W, ratio to control without chemical): 1.3
The level of expressed mRNA in the presence of chemical substance/The level of expressed mRNA in the absence of chemical substance (yeast gene YAR010C): 1.2
The level of expressed mRNA in the presence of chemical substance/The level of expressed mRNA in the absence of chemical substance (yeast gene YBL005W-A): 0.5
The level of expressed mRNA in the presence of chemical substance/The level of expressed mRNA in the absence of chemical substance (yeast gene YBL041W): 0.9
The level of expressed mRNA in the presence of chemical substance/The level of expressed mRNA in the absence of chemical substance (yeast gene YBL043W): 1.1
The level of expressed mRNA in the presence of chemical substance/ (yeast gene YBL048W, ratio to control without chemical substance, 2 h culture): 2.3
The level of expressed mRNA in the presence of chemical substance/The level of expressed mRNA in the absence of chemical substance (yeast gene YBL078C): 1.3
The level of expressed mRNA in the presence of chemical substance/ (yeast gene YBL107C, ratio to control without chemical substance, 2 h culture): 0.4
The level of expressed mRNA in the presence of chemical substance/in the absence of chemical substance (yeast gene YBR036C): 1.8
The level of expressed mRNA in the presence of chemical substance/The level of expressed mRNA in the absence of chemical substance (yeast gene YBR214W): 5.7
The level of expressed mRNA in the presence of chemical substance/in the absence of chemical substance (yeast gene YBR298C): 1.6
The level of expressed mRNA in the presence of chemical substance/The level of expressed mRNA in the absence of chemical substance (yeast gene YCL020W): 0.5
The level of expressed mRNA in the presence of chemical substance/The level of expressed mRNA in the absence of chemical substance (yeast gene YCL027W): 1.0
The level of expressed mRNA in the presence of chemical substance/The level of expressed mRNA in the absence of chemical substance (yeast gene YCR004C): 12.0
The level of expressed mRNA in the presence of chemical substance/The level of expressed mRNA in the absence of chemical substance (yeast gene YCR071C): 0.9
The level of expressed mRNA in the presence of chemical substance/The level of expressed mRNA in the absence of chemical substance (yeast gene YCR088W): 1.2
The level of expressed mRNA in the presence of chemical substance/The level of expressed mRNA in the absence of chemical substance (yeast gene YDL008W): 1.0
The level of expressed mRNA in the presence of chemical substance/ (yeast gene YDL072C, ratio to control without chemical): 3.5
The level of expressed mRNA in the presence of chemical substance/in the absence of chemical substance (yeast gene YDL078C): 1.2
The level of expressed mRNA in the presence of chemical substance/ (yeast gene YDL204W, ratio to control without chemical): 4.8
The level of expressed mRNA in the presence of chemical substance/in the absence of chemical substance (yeast gene YDL215C): 1.0
The level of expressed mRNA in the presence of chemical substance/ (yeast gene YDL222C, ratio to control without chemical): 1.5
The level of expressed mRNA in the presence of chemical substance/The level of expressed mRNA in the absence of chemical substance (yeast gene YDL238C): 1.1
The level of expressed mRNA in the presence of chemical substance/The level of expressed mRNA in the absence of chemical substance (yeast gene YDR055W): 2.2
The level of expressed mRNA in the presence of chemical substance/The level of expressed mRNA in the absence of chemical substance (yeast gene YDR084C): 1.5
The level of expressed mRNA in the presence of chemical substance/The level of expressed mRNA in the absence of chemical substance (yeast gene YDR085C): 1.6
The level of expressed mRNA in the presence of chemical substance/The level of expressed mRNA in the absence of chemical substance (yeast gene YDR104C): 1.2
The level of expressed mRNA in the presence of chemical substance/The level of expressed mRNA in the absence of chemical substance (yeast gene YDR115W): 0.6
The level of expressed mRNA in the presence of chemical substance/The level of expressed mRNA in the absence of chemical substance (yeast gene YDR259C): 0.4
The level of expressed mRNA in the presence of chemical substance/in the absence of chemical substance (yeast gene YDR297W): 0.8
The level of expressed mRNA in the presence of chemical substance/The level of expressed mRNA in the absence of chemical substance (yeast gene YDR315C): 1.0
The level of expressed mRNA in the presence of chemical substance/ (yeast gene YDR330W, ratio to control without chemical substance, 2 h culture): 1.2
The level of expressed mRNA in the presence of chemical substance/The level of expressed mRNA in the absence of chemical substance (yeast gene YDR358W): 0.7
The level of expressed mRNA in the presence of chemical substance/in the absence of chemical substance (yeast gene YDR387C): 1.2
The level of expressed mRNA in the presence of chemical substance/The level of expressed mRNA in the absence of chemical substance (yeast gene YDR388W): 1.2
The level of expressed mRNA in the presence of chemical substance/ (yeast gene YDR411C, ratio to control without chemical substance, 2 h culture): 1.8
The level of expressed mRNA in the presence of chemical substance/The level of expressed mRNA in the absence of chemical substance (yeast gene YDR432W): 1.0
The level of expressed mRNA in the presence of chemical substance/The level of expressed mRNA in the absence of chemical substance (yeast gene YDR481C): 1.3
The level of expressed mRNA in the presence of chemical substance/The level of expressed mRNA in the absence of chemical substance (yeast gene YDR510W): 1.5
The level of expressed mRNA in the presence of chemical substance/ (yeast gene YDR511W, ratio to control without chemical substance, 2 h culture): 0.9
The level of expressed mRNA in the presence of chemical substance/ (yeast gene YDR545W, ratio to control without chemical substance, 2 h culture): 0.6
The level of expressed mRNA in the presence of chemical substance/ (yeast gene YEL001C, ratio to control without chemical): 1.4
The level of expressed mRNA in the presence of chemical substance/The level of expressed mRNA in the absence of chemical substance (yeast gene YEL042W): 1.7
The level of expressed mRNA in the presence of chemical substance/The level of expressed mRNA in the absence of chemical substance (yeast gene YEL066W): 1.5
The level of expressed mRNA in the presence of chemical substance/ (yeast gene YER004W, ratio to control without chemical substance, 2 h culture): 1.9
The level of expressed mRNA in the presence of chemical substance/ (yeast gene YER035W, ratio to control without chemical substance, 2 h culture): 1.6
The level of expressed mRNA in the presence of chemical substance/The level of expressed mRNA in the absence of chemical substance (yeast gene YER039C): 1.0
The level of expressed mRNA in the presence of chemical substance/ (yeast gene YER079W, ratio to control without chemical substance, 2 h culture): 1.9
The level of expressed mRNA in the presence of chemical substance/ (yeast gene YER106W, ratio to control without chemical): 1.3
The level of expressed mRNA in the presence of chemical substance/The level of expressed mRNA in the absence of chemical substance (yeast gene YER107C): 1.0
The level of expressed mRNA in the presence of chemical substance/The level of expressed mRNA in the absence of chemical substance (yeast gene YER130C): 0.5
The level of expressed mRNA in the presence of chemical substance/ (yeast gene YER158C, ratio to control without chemical substance, 2 h culture): 0.9
The level of expressed mRNA in the presence of chemical substance/ (yeast gene YER163C, ratio to control without chemical substance, 2 h culture): 1.2
The level of expressed mRNA in the presence of chemical substance/ (yeast gene YER175C, ratio to control without chemical substance, 2 h culture): 1.3
The level of expressed mRNA in the presence of chemical substance/ (yeast gene YFL006W, ratio to control without chemical substance, 2 h culture): 1.6
